Results taken from patent publication US6413946B1, “Composition for treatment of diabetes and treatment of diabetes” (Meiji Seika Kaisha, Ltd., priority 1997, dated 2002).
Entries after “also recorded” stand apart in the source; their conditions may differ.

Experiments:
rats = experiment: Toxicity in rats at oral administration; type: in vivo
STZ diabetic rats [1] = experiment: Biochemical tests of blood of STZ diabetic rats (Example 2); type: in vivo, Wistar rats; details: 320 mg/kg oral twice a day for 5 consecutive days
Description: To male Wistar 7-week-old rats (7 rats per group), which were intravenously administered with a single dose of 60 mg/kg of STZ and which were confirmed to have been made diabetic after the lapse of 1 week from the STZ administration, fosfomycin disodium salt or fosfomycin calcium salt (FOM-Ca) was orally administered at a dose of 320 mg/kg, twice a day for 5 consecutive days. Then, sample of the blood of each test rat was taken and subjected to the biochemical tests.

STZ diabetic rats [2] = experiment: General observation of body conditions of STZ diabetic rats (Example 1); type: in vivo, Wistar rats; details: oral twice a day for 5 consecutive days, VOSO4 50 mg/kg, FOM-Na 160 mg/kg
Description: (§1) In this Example, as animals to be tested, the STZ diabetic rats were prepared from normal Wistar rats having an average body weight of 250 g (male, 6 weeks of age). For this purpose, the normal Wistar rats were made diabetic by a single administration of a dose of 60 mg/kg of STZ intravenously. The normal Wistar rats (male) which are to be subjected to the STZ administration, when they were given 20 g/day of feed and 36 g/day of water, had have such body conditions that average values each of their urine volume output, serum glucose level, serum urea nitrogen level, serum creatinine level, serum total protein level and serum albumin level of the rats are amounting to 18 ml, 152 mg/dl, 18.0 mg/dl, 0.5 mg/dl, 5.63 g/dl and 4.2 g/dl, respectively.
(§2) The STZ diabetic rats as prepared and used in this Example are such those rats (7 weeks of age, 6 rats per group) which had received an intravenous administration of a single dose of 60 mg/kg of STZ and which were confirmed to have been made diabetic with their showing such symptom that their serum glucose level was not less than 400 (mg/dl), when measured by sampling their blood at 1 week lapse from the STZ administration.
(§3) One week after the intravenous administration of single dose 60 mg/kg of STZ, to the male 7-week-old Wistar rats (6 rats per group), which have been confirmed to have the symptoms of diabetes, were orally administered either one or both of vanadyl sulfate VOSO4 at a single dose of 50 mg/kg and fosfomycin disodium salt (abbreviated as FOM-Na) at a single dose of 160 mg/kg, twice a day for 5 consecutive days, by administration of the test compound(s) in the form of the aqueous solutions. The body weight, amounts (volumes) of feed taken, water taken and urine volume output of the rats under test were measured with lapse of time. Further, sampling of blood from the rats was effected at a time of 24 hours after the final administration of the compound(s) tested. Samplings of the urine from the rats were effected over 12 hours after the final administration of the compound(s) tested, and the blood sample and the urine samples as collected were subjected to the following biochemical tests.
(§4) In the biological tests of the blood sample above-mentioned, there were measured the serum glucose level, serum urea nitrogen level, serum creatinine level, serum total protein level and serum albumin level. In the biochemical tests of the urine sample, there were measured the collected amounts of the glucose, total protein and creatinine present in the urine. […] These rats for the comparative purpose were tested similarly to the above tests.

STZ diabetic rats [3] = experiment: Biochemical tests of serum (blood) sample of STZ diabetic rats (Example 1); type: in vivo, Wistar rats; details: oral twice a day for 5 consecutive days, fosfomycin disodium salt 160 mg/kg, vanadyl sulfate 50 mg/kg, alone or combined
Description: In this Example, as animals to be tested, the STZ diabetic rats were prepared from normal Wistar rats having an average body weight of 250 g (male, 6 weeks of age). For this purpose, the normal Wistar rats were made diabetic by a single administration of a dose of 60 mg/kg of STZ intravenously. […]
as §2
One week after the intravenous administration of single dose 60 mg/kg of STZ, to the male 7-week-old Wistar rats (6 rats per group), which have been confirmed to have the symptoms of diabetes, were orally administered either one or both of vanadyl sulfate VOSO4 at a single dose of 50 mg/kg and fosfomycin disodium salt (abbreviated as FOM-Na) at a single dose of 160 mg/kg, twice a day for 5 consecutive days, by administration of the test compound(s) in the form of the aqueous solutions. The body weight, amounts (volumes) of feed taken, water taken and urine volume output of the rats under test were measured with lapse of time. […]

STZ diabetic rats [4] = experiment: Biochemical test of urine sample of STZ diabetic rats (Example 1); type: in vivo, Wistar rats; details: oral twice a day for 5 consecutive days, VOSO4 50 mg/kg, FOM-Na 160 mg/kg
Description: as §1, §2, §3, §4

Na,K-ATPase = details: cited from earlier work
STZ diabatic rats = details: aqueous saline solution as drinking water; 6th week after the administration; cited from earlier work

| Compound | Blood Glucose (STZ diabetic rats [1]; Day 0) | Blood Triglyceride (STZ diabetic rats [1]; Day 0) | Blood Albumin (STZ diabetic rats [1]; Day 5) | Blood Creatinine (STZ diabetic rats [1]; Day 5) | Blood Glucose (STZ diabetic rats [1]; Day 5) | Blood Total protein (STZ diabetic rats [1]; Day 5) | Blood Triglyceride (STZ diabetic rats [1]; Day 5) | Body weight (STZ diabetic rats [2]; Day 0) | Feed volume taken (STZ diabetic rats [2]; Day 0) | Urine volume output (STZ diabetic rats [2]; Day 0) | Water volume taken (STZ diabetic rats [2]; Day 0) | Body weight (STZ diabetic rats [2]; Day 5) | Feed volume taken (STZ diabetic rats [2]; Day 5) | Urine volume output (STZ diabetic rats [2]; Day 5) | Water volume taken (STZ diabetic rats [2]; Day 5) | Urine Creatinine (STZ diabetic rats [4]; Day 0) | Urine Glucose (STZ diabetic rats [4]; Day 0) | Urine Total protein (STZ diabetic rats [4]; Day 0) | Urine Creatinine (STZ diabetic rats [4]; Day 5) | Urine Glucose (STZ diabetic rats [4]; Day 5) | also measured |
| --- | --- | --- | --- | --- | --- | --- | --- | --- | --- | --- | --- | --- | --- | --- | --- | --- | --- | --- | --- | --- | --- |
| C[C@@H]1O[C@@H]1P(=O)([O-])[O-].[Ca+2] [FOM-Ca, fosfomycin calcium salt] | 431 ± 5 mg/dL | 178 ± 18 mg/d1 | 4.1 ± 0.1 g/dL | 0.51 ± 0.01 mg/dL | 336 ± 23 mg/dL | 5.37 ± 0.07 g/dL | 59 ± 7 mg/d1 | – | – | – | – | – | – | – | – | – | – | – | – | – | LD50 (rats; oral administration): ≥ 3500 mg/kg; Effect on serum glucose level / symptoms of diabetes (in words) (STZ diabetic rats [1]; listed as calcium salt, calcium salt): evidently ameliorate an unusually high serum glucose level; Effect on serum glucose level / symptoms of diabetes (in words) (STZ diabetic rats [1]; listed as fosfomycin calcium salt, calcium salt): clearly ameliorate |
| C[C@@H]1O[C@@H]1P(=O)([O-])[O-].[Na+].[Na+] [FOM-Na, fosfomycin disodium salt] | 432 ± 6 mg/dL | 211 ± 30 mg/d1 | 4.0 ± 0.1 g/dL | 0.50 ± 0.00 mg/dL | 345 ± 23 mg/dL | 5.26 ± 0.06 g/dL | 65 ± 3 mg/d1 | 235 ± 4 g | 36 ± 1 g | 115 ± 5 mL | 153 ± 5 g | 282 ± 3 g | 37 ± 1 g | 106 ± 7 mL | 142 ± 16 g | 12.5 ± 0.7 mg/12 hr | 9.2 ± 0.9 g/12 hr | 4.2 ± 1.1 g/12 hr | 12.5 ± 0.8 mg/12 hr | 8.9 ± 1.3 g/12 hr | Effect on serum glucose level / symptoms of diabetes (in words) (STZ diabetic rats [1]; disodium salt): evidently ameliorate an unusually high serum glucose level; also recorded: clearly ameliorate; Effect on serum glucose level (in words) (STZ diabetic rats [3]; disodium salt): tendency to improve the serum glucose level; also recorded: action of lowering an unusually high serum glucose level; Urine Total protein (STZ diabetic rats [4]; Day 5): 5.6 ± 2.2 g/12 hr |
| O=S(=O)([O-])[O-].[O]=[V+2] [VOSO4, vanadyl sulfate] | – | – | – | – | – | – | – | 226 ± 8 g | 35 ± 2 g | 111 ± 10 mL | 140 ± 12 g | 239 ± 9 g | 29 ± 4 g | 82 ± 21 mL | 99 ± 24 g | 12.5 ± 1.8 mg/12 hr | 9.1 ± 1.4 g/12 hr | 7.2 ± 8.2 g/12 hr | 12.1 ± 2.5 mg/12 hr | 6.8 ± 3.2 g/12 hr | Toxicity (in words) (rats; oral administration of 50 mg/kg): no toxicity; Effect on serum glucose level (in words) (STZ diabetic rats [3]): action of lowering an unusually high serum glucose level; Urine Total protein (STZ diabetic rats [4]; Day 5): 3.9 ± 0.8 g/12 hr |
| C[C@@H]1O[C@@H](O[C@H]2C[C@@H](O)[C@]3(CO)[C@H]4[C@H](O)C[C@]5(C)[C@@H](C6=CC(=O)OC6)CC[C@]5(O)[C@@H]4CC[C@]3(O)C2)[C@H](O)[C@H](O)[C@H]1O [ouabain] | – | – | – | – | – | – | – | – | – | – | – | – | – | – | – | – | – | – | – | – | Inhibition of Na,K-ATPase (in words) (Na,K-ATPase): strong inhibitor |
| [Na+].[Na+].[Na+].[O]=[V]([O-])([O-])[O-] [sodium orthovanadate] | – | – | – | – | – | – | – | – | – | – | – | – | – | – | – | – | – | – | – | – | Inhibition of Na,K-ATPase (in words) (Na,K-ATPase): strongly inhibit |
| sodium metavanadate | – | – | – | – | – | – | – | – | – | – | – | – | – | – | – | – | – | – | – | – | Serum glucose level (in words) (STZ diabatic rats): returned to the normal level |
